Experimental data published in ChEMBL document CHEMBL3862027, “Synthesis and antimalarial activity of N-benzylated (N-arylcarbamoyl)alkylphosphonic acid derivatives” (Bioorg Med Chem, 2016).

Assays:
Plasmodium falciparum [1] = test: Antimalarial activity against Plasmodium falciparum 3D7 infected in human erythrocytes after 48 hrs by lactate dehydrogenase assay; type: functional, cell-based; settings: 3D7, 48 h
Plasmodium falciparum [2] = test: Antimalarial activity against Plasmodium falciparum 3D7 infected in human erythrocytes assessed as cell viability at 20 uM after 48 hrs by lactate dehydrogenase assay; type: functional
[3] = Cytotoxicity against human HeLa cells assessed as cell viability at 20 uM after 24 hrs by resazurin based fluorescence assay relative to control; type: toxicity; settings: read-out: Activity
Plasmodium falciparum [4] = test: Inhibition of Plasmodium falciparum DXR at 20 uM using DOXP as substrate preincubated for 5 mins followed by substrate addition measured for 10 mins in presence of NADPH by spectrophotometric analysis

Row | SMILES | IC50 (Plasmodium falciparum [1]) | Activity (Plasmodium falciparum [2]) | viability at 24 h, 20 µM [3] | inhibition (Plasmodium falciparum [4])
1 | C#CCNC(=O)CCP(=O)(OCC)OCC | 20.1 µM | -4.04% | 92% | 
2 | CCOP(=O)(CCC(=O)Nc1cccc(OCc2ccccc2)c1)OCC |  | 51.13% | 105% | 
3 | O=C(CCP(=O)(O)O)N(Cc1ccccc1)c1ccccn1 |  |  |  | 0%
4 | C#CCNC(=O)CP(=O)(OCC)OCC |  | 47.96% | 104% | 
5 | CCOP(=O)(CCC(=O)Nc1cccc(O)c1)OCC |  | 54.54% | 119% | 
6 | CCOP(=O)(CCC(=O)N(Cc1ccccc1)c1cccc(O)c1)OCC | 15.8 to 15.9 µM | -8.05% | 120% | 
7 | CC(=O)N(O)CCCP(=O)(O)O |  |  |  | 73.3%
8 | CCOP(=O)(CCC(=O)N(Cc1ccccc1)c1cccc(CO)c1)OCC |  | 55.44% | 110% | 
9 | O=C(CCP(=O)(O)O)N(Cc1ccccc1)c1cccc(O)c1 |  |  |  | 0%
10 | CCOP(=O)(CCC(=O)N(Cc1ccccc1)c1cccc([N+](=O)[O-])c1)OCC |  | 59.6% | 118% | 
11 | C#CCNC(=O)CCP(=O)(O)O |  |  |  | 6.7%
12 | CCOP(=O)(CCC(=O)N(Cc1ccccc1)c1cccc(OCc2ccccc2)c1)OCC | 16.4 µM | 6.84% | 108% | 
13 | CCOP(=O)(CCC(=O)N(Cc1ccccc1)c1ccccn1)OCC | 22.3 µM | -5.33% | 113% | 
14 | CCOP(=O)(CCC(=O)N(Cc1ccccc1)c1cccc(Br)c1)OCC |  | 35.19% | 121% | 
15 | CCOP(=O)(CC(=O)Nc1cccc(Br)c1)OCC |  | 50.91% | 102% | 
16 | CCOP(=O)(CC(=O)Nc1cccc(CO)c1)OCC | 10.1 µM | -7.26% | 123% | 
17 | CCOP(=O)(CC(=O)Nc1cccc([N+](=O)[O-])c1)OCC |  | 64.13% | 83.1% | 
18 | CCOP(=O)(CC(=O)Nc1ccccn1)OCC | 23.1 µM | -19.39% | 131% | 
19 | CCOP(=O)(CC(=O)Nc1cccc(O)c1)OCC |  | 52.42% | 117% | 
20 | CCOP(=O)(CC(=O)Nc1cccc(O[Si](C)(C)C(C)(C)C)c1)OCC |  | 61.87% | 85.7% | 
